Measured values: patent publication US12492173B2, “Herbicidal substituted N-tetrazolyl aryl carboxamides” (Bayer Aktiengesellschaft, priority 2019, dated 2025)

What was measured:
Type in all cases: in vivo
[1] = system: Hordeum murinum; assay: Pre-emergence herbicidal action, HORMU; details: dosage 320 g/ha, scored visually after 3 weeks vs untreated controls (100% = plants have died)
Procedure, shortened: (§1)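 Seeds sown in sandy loam in pots and covered with soil; compounds formulated as WP or EC were sprayed onto the soil surface as aqueous suspension/emulsion at 600 to 800 l/ha water with 0.2% wetting agent. Greenhouse growth; visual damage scored after 3 weeks versus untreated controls (100% = plants died, 0% = like control).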

[2] = system: Lolium rigidum; assay: Post-emergence herbicidal action, LOLRI; details: dosage 80 g/ha
Description: (§2) [table] 2. Post-Emergence Herbicidal Action Against Harmful Plants Seeds of monocotyledonous and dicotyledonous weed and crop plants are laid out in sandy loam soil in wood-fiber pots, covered with soil and cultivated in a greenhouse under good growth conditions. 2 to 3 weeks after sowing, the test plants are treated at the one-leaf stage. The compounds of the invention, formulated in the form of wettable powders (WP) or as emulsion concentrates (EC), are then sprayed onto the green parts of the plants in the form of an aqueous suspension or emulsion at a water application rate equating to 600 to 800 l/ha, with addition of 0.2% wetting agent. After the test plants have been left to stand in the greenhouse under optimal growth conditions for about 3 weeks, the action of the preparations is assessed visually in comparison to untreated controls (herbicidal action in percent (%): 100% activity=the plants have died, 0% activity=like control plants). […] The tables below illustrate, in an exemplary manner, the post-emergence herbicidal action of the compounds according to the invention, the herbicidal activity being stated in percent. In the experiments that follow, herbicidal action of numerous inventive compounds and the known compounds that are structurally closest from D1 (WO 2012/028579 A1) and D2 (WO 2018/202535 A1) were compared under the above-specified conditions by the pre-emergence and post-emergence method. The example numbers given in the tables relate to the compounds disclosed in the respective documents. In addition to the compounds disclosed in D1 and D2, the following compounds V-1 to V-14 that are encompassed by D1 or D2 but are not compounds specified therein were used in the comparative experiments: • V-1: 2-(methylsulfanyl)-3-(methylsulfinyl)-N-(1-methyl-1H-tetrazol-5-yl)-4-(trifluoromethyl)benzamide • V-2: 2-(methylsulfanyl)-3-(methylsulfonyl)-N-(1-methyl-1H-tetrazol-5-yl)-4-(trifluoromethyl)benzamide • V-3: 2,3-bis(ethylsulfanyl)-N-(1-methyl-1H-tetrazol-5-yl)-4-(trifluoromethyl)benzamide • V-4: 2-chloro-3-(ethylsulfanyl)-N-(1-methyl-1H-tetrazol-5-yl)-4-(trifluoromethyl)benzamide • V-5: 2-chloro-4-iodo-3-(methylsulfanyl)-N-(1-methyl-1H-tetrazol-5-yl)benzamide • V-6: 2-chloro-4-iodo-3-(methylsulfinyl)-N-(1-methyl-1H-tetrazol-5-yl)benzamide • V-7: 2-chloro-4-iodo-3-(methylsulfonyl)-N-(1-methyl-1H-tetrazol-5-yl)benzamide • V-8: 2-bromo-3-(methylsulfanyl)-N-(1-methyl-1H-tetrazol-5-yl)-4-(trifluoromethyl)benzamide • V-9: 2-bromo-3-(methylsulfinyl)-N-(1-methyl-1H-tetrazol-5-yl)-4-(trifluoromethyl)benzamide • V-10: 2-bromo-3-(methylsulfonyl)-N-(1-methyl-1H-tetrazol-5-yl)-4-(trifluoromethyl)benzamide • V-11: 2-bromo-3-(ethylsulfanyl)-N-(1-methyl-1H-tetrazol-5-yl)-4-(trifluoromethyl)benzamide • V-12: 2-bromo-3-(ethylsulfinyl)-N-(1-methyl-1H-tetrazol-5-yl)-4-(trifluoromethyl)benzamide • V-13: 2-bromo-3-(ethylsulfonyl)-N-(1-methyl-1-1H-tetrazol-5-yl)-4-(trifluoromethyl)benzamide • V-14: 2-cyclopropyl-3-(ethylsulfanyl)-N-(1-methyl-1H-tetrazol-5-yl)-4-(trifluoromethyl)benzamide Herbicidal Pre-Emergence Action: […]

[3] = system: Digitaria sanguinalis; assay: Pre-emergence herbicidal action, DIGSA; details: dosage 320 g/ha, scored visually after 3 weeks vs untreated controls (100% = plants have died)
From the text: 1. Pre-Emergence Herbicidal Action Against Harmful Plants Seeds of monocotyledonous and dicotyledonous weed plants and crop plants are laid out in sandy loam soil in wood-fiber pots and covered with soil. The compounds of the invention, formulated in the form of wettable powders (WP) or as emulsion concentrates (EC), are then applied to the surface of the covering soil in the form of an aqueous suspension or emulsion at a water application rate equating to 600 to 800 l/ha, with addition of 0.2% wetting agent. After the treatment, the pots are placed in a greenhouse and kept under good growth conditions for the trial plants. The damage to the test plants is scored visually after a test period of 3 weeks by comparison with untreated controls (herbicidal activity in percent (%): 100% activity=the plants have died, 0% activity=like control plants). […] The tables below illustrate, in an exemplary manner, the […] herbicidal action of the compounds according to the invention, the herbicidal activity being stated in percent. [table] In the experiments that follow, herbicidal action of numerous inventive compounds and the known compounds that are structurally closest from D1 (WO 2012/028579 A1) and D2 (WO 2018/202535 A1) were compared under the above-specified conditions by the pre-emergence and post-emergence method. The example numbers given in the tables relate to the compounds disclosed in the respective documents. In addition to the compounds disclosed in D1 and D2, the following compounds V-1 to V-14 that are encompassed by D1 or D2 but are not compounds specified therein were used in the comparative experiments: • V-1: 2-(methylsulfanyl)-3-(methylsulfinyl)-N-(1-methyl-1H-tetrazol-5-yl)-4-(trifluoromethyl)benzamide • V-2: 2-(methylsulfanyl)-3-(methylsulfonyl)-N-(1-methyl-1H-tetrazol-5-yl)-4-(trifluoromethyl)benzamide • V-3: 2,3-bis(ethylsulfanyl)-N-(1-methyl-1H-tetrazol-5-yl)-4-(trifluoromethyl)benzamide • V-4: 2-chloro-3-(ethylsulfanyl)-N-(1-methyl-1H-tetrazol-5-yl)-4-(trifluoromethyl)benzamide • V-5: 2-chloro-4-iodo-3-(methylsulfanyl)-N-(1-methyl-1H-tetrazol-5-yl)benzamide • V-6: 2-chloro-4-iodo-3-(methylsulfinyl)-N-(1-methyl-1H-tetrazol-5-yl)benzamide • V-7: 2-chloro-4-iodo-3-(methylsulfonyl)-N-(1-methyl-1H-tetrazol-5-yl)benzamide • V-8: 2-bromo-3-(methylsulfanyl)-N-(1-methyl-1H-tetrazol-5-yl)-4-(trifluoromethyl)benzamide • V-9: 2-bromo-3-(methylsulfinyl)-N-(1-methyl-1H-tetrazol-5-yl)-4-(trifluoromethyl)benzamide • V-10: 2-bromo-3-(methylsulfonyl)-N-(1-methyl-1H-tetrazol-5-yl)-4-(trifluoromethyl)benzamide • V-11: 2-bromo-3-(ethylsulfanyl)-N-(1-methyl-1H-tetrazol-5-yl)-4-(trifluoromethyl)benzamide • V-12: 2-bromo-3-(ethylsulfinyl)-N-(1-methyl-1H-tetrazol-5-yl)-4-(trifluoromethyl)benzamide • V-13: 2-bromo-3-(ethylsulfonyl)-N-(1-methyl-1-1H-tetrazol-5-yl)-4-(trifluoromethyl)benzamide • V-14: 2-cyclopropyl-3-(ethylsulfanyl)-N-(1-methyl-1H-tetrazol-5-yl)-4-(trifluoromethyl)benzamide Herbicidal Pre-Emergence Action: […]

[4] = system: Hordeum murinum; assay: Post-emergence herbicidal action, HORMU; set-up: key: % herbicidal action: 100 = plants died, 0 = like control; details: post-emergence, dosage 80 g/ha
Description: as §2

[5] = system: Digitaria sanguinalis; assay: Post-emergence herbicidal action, DIGSA; set-up: key: % herbicidal action: 100 = plants died, 0 = like control
Description: as §2

[6] = system: Cyperus esculentus; assay: Pre-emergence herbicidal action, CYPES; set-up: key: % activity: 100 = plants have died, 0 = like control plants; details: comparative experiment, 20 g of a.i./ha
Procedure, shortened: as §1

Row | SMILES | herbicidal activity HORMU [1] [%] | herbicidal action LOLRI [2] [%] | herbicidal activity DIGSA [3] [%] | herbicidal action HORMU [4] [%] | herbicidal action DIGSA ([5]; post-emergence, dosage 80 g/ha) [%] | Herbicidal action against CYPES [6] | herbicidal action DIGSA ([5]; Dosage 80 g/ha)
1 | CC[S+]([O-])Cc1c(C(F)(F)F)ccc(C(=O)Nc2nnnn2C)c1Cl (racemic) [Example 1-300] | 100 | 90 | 100 | 90 | 100 |  | 
2 | Cn1nnnc1NC(=O)c1ccc(C(F)(F)F)c(C[S+]([O-])C2CC2)c1Cl (racemic) [Example 1-303] | 100 | 90 |  | 100 |  |  | 
3 | Cn1nnnc1NC(=O)c1ccc(C(F)(F)F)c(C[S+]([O-])CC(F)(F)F)c1Cl (racemic) [Example 1-312] | 100 |  | 100 | 80 | 100 |  | 
4 | Cn1nnnc1NC(=O)c1ccc(I)c(C[S+](C)[O-])c1Cl (racemic) [Example 1-363] | 100 | 80 | 100 | 90 | 100 |  | 
5 | CSc1c(C(=O)Nc2nnnn2C)ccc(C(F)(F)F)c1C[S+](C)[O-] (stereo not shown) [Example 1-162] | 80 | 80 |  | 90 |  | 70 | 
6 | Cn1nnnc1NC(=O)c1ccc(C(F)(F)F)c(CSC2CC2)c1Cl [Example 1-302] | 100 | 90 |  | 90 |  |  | 
7 | Cn1nnnc1NC(=O)c1ccc(C(F)(F)F)c(CS(=O)(=O)C2CC2)c1Cl [Example 1-304] | 100 | 80 |  | 80 |  |  | 
8 | COCCSCc1c(C(F)(F)F)ccc(C(=O)Nc2nnnn2C)c1Cl [Example 1-305] | 100 | 100 |  | 90 |  |  | 
9 | Cn1nnnc1NC(=O)c1ccc(C(F)(F)F)c(CSCC2CC2)c1Cl [Example 1-314] | 100 | 90 |  | 100 |  |  | 
10 | CSCc1c(I)ccc(C(=O)Nc2nnnn2C)c1Cl [Example 1-362] | 80 | 80 |  | 100 |  | 80 | 
11 | Cn1nnnc1NC(=O)c1ccc(I)c(CS(C)(=O)=O)c1Cl [Example 1-364] | 90 |  | 100 |  |  |  | 100
12 | Cn1nnnc1NC(=O)c1ccc(C(F)(F)F)c(CS(C)(=O)=O)c1C(F)(F)C(F)(F)F [Example 1-552] | 80 |  | 100 |  |  |  | 90
13 | CCn1nnnc1NC(=O)c1ccc(C(F)F)c(CSC)c1SC [Example 2-170] | 80 |  | 100 |  |  |  | 100
14 | CCn1nnnc1NC(=O)c1ccc(C(F)(F)F)c(C[S+]([O-])CC)c1Cl (stereo not shown) [Example 2-300] | 100 | 80 | 100 | 90 | 100 |  | 
15 | CCn1nnnc1NC(=O)c1ccc(C(F)(F)F)c(CSCCOC)c1Cl [Example 2-305] | 100 | 80 |  | 100 |  |  | 
16 | CCn1nnnc1NC(=O)c1ccc(C(F)(F)F)c(C[S+]([O-])CC2CC2)c1Cl (stereo not shown) [Example 2-315] | 100 |  | 100 |  |  |  | 100
17 | CCn1nnnc1NC(=O)c1ccc(C(F)F)c(C[S+]([O-])CC)c1Cl (stereo not shown) [Example 2-324] | 100 |  | 100 | 90 | 100 |  | 
18 | CCCn1nnnc1NC(=O)c1ccc(C(F)(F)F)c(C[S+](C)[O-])c1SC (stereo not shown) [Example 3-162] | 100 | 80 |  | 90 |  |  | 
19 | CCCn1nnnc1NC(=O)c1ccc(C(F)F)c(C[S+](C)[O-])c1SC (stereo not shown) [Example 3-171] | 90 |  | 100 |  |  |  | 90
20 | CCCn1nnnc1NC(=O)c1ccc(C(F)F)c(CS(C)(=O)=O)c1SC [Example 3-172] | 80 |  | 100 |  |  |  | 90
